{"source": "patent US9200071B2", "about": "“Methods of treating cancer using Notch1 and Notch3 antagonists” (Genentech, Inc., priority 2009, dated 2015)", "assay_type_in_all_cases": "cell-based, human", "key": {"P-12 Ichikawa cell line [1]": {"tested_on": "P-12 Ichikawa cell line", "assay": "Cell cycle status by propidium iodide FACS (growth sensitivity)", "details": "eight days; DAPT 5 μM, anti-NRR1 5 μg/ml; FIG. 3A-3D", "protocol": "(§1) FIGS. 3-5 presents the classification of three representative human T-ALL cell lines. Those cell lines include the P-12 Ichikawa cell line, the HPB-ALL cell line, and the TALL-1 cell line. The cells were grown for eight days in control conditions (DMSO alone (the vehicle for DAPT) or anti-gD (an isotype control antibody)); in the presence of the gamma-secretase inhibitor, DAPT (5 μM); or in the presence of anti-NRR1 (5 μg/ml). The cells were fixed, stained with propidium iodide and prepared for FACS to analyze the cell cycle status, according to standard procedures. […] HPB-ALL cells are sensitive to both DAPT and anti-NRR1 (FIG. 4A-4D), with DAPT- and anti-NRR1-treated cells showing about 78% and 76% of cells in G0/G1, respectively, compared to about 33-34% of the control cells. TALL-1 cells are sensitive to DAPT but resistant to anti-NRR1 (FIG. 5A-5D), with about 87% of DAPT-treated cells in G0/G1, compared to about 55% of anti-NRR1-treated cells and about 53-54% of control cells. It is noted that Notch1 is not mutated in TALL-1 cells. […] (Data not shown and FIG. 10.)"}, "CCRF-CEM cells": {"tested_on": "CCRF-CEM cells", "assay": "Cell cycle status by propidium iodide FACS (growth sensitivity)", "details": "eight days; DAPT 5 μM, anti-NRR1 5 μg/ml, anti-NRR3 10 μg/ml; FIG. 10A-10F", "protocol": "as §1\n(§2) As described above, two of the three classes of T-ALL, represented by HPB-ALL and TALL-1, are both sensitive to GSI but differ in that the former is sensitive to anti-NRR1, whereas the latter is not. […] To address this question, CCRF-CEM cells, HPB-ALL cells, and TALL-1 cells were treated as described for FIGS. 3-5, except that a Notch3-specific antagonist was also included at 10 μg/ml in a subset of the treatments to test whether growth depended on Notch3 signaling. The Notch3-specific antagonist used in these studies was mouse anti-human Notch3 monoclonal antibody 256A-4, the isolation and characterization of which are discussed in U.S. Patent Application Publication No. US 2008/0226621 A1. For convenience, 256A-4 is referred to herein as “anti-NRR3,” and is also referred to as “α-N3” in the figures."}, "HPB-ALL cell line [2]": {"tested_on": "HPB-ALL cell line", "assay": "Cell cycle status by propidium iodide FACS (growth sensitivity)", "details": "eight days, DAPT 5 μM, anti-NRR1 5 μg/ml", "protocol": "as §1, §2"}, "TALL-1 cell line [3]": {"tested_on": "TALL-1 cell line", "assay": "Cell cycle status by propidium iodide FACS (growth sensitivity)", "details": "eight days, DAPT 5 μM, anti-NRR1 5 μg/ml; for percentage of cells in G0/G1: control cells about 53-54%", "protocol": "as §1, §2"}, "HPB-ALL cell line [4]": {"tested_on": "HPB-ALL cell line", "assay": "Cell diameter measurement (Vi-Cell cell counter)", "details": "approximately one week; DAPT 5 μM, anti-NRR1 5 μg/ml; FIG. 6", "protocol": "(§3) The P-12 Ichikawa cell line, the HPB-ALL cell line, and the TALL-1 cell line were grown for approximately one week in control conditions (DMSO alone (the vehicle for DAPT) or anti-gD (an isotype control antibody)); in the presence of the gamma-secretase inhibitor, DAPT (5 μM); or in the presence of anti-NRR1 (5 μg/ml). Cell diameter was measured using a cell counter (Vi-Cell, Beckman Coulter). Consistent with the growth inhibition studies, the P-12 Ichikawa line is resistant to both DAPT and anti-NRR1, as indicated by relatively consistent cell diameter among treated and control cells."}, "P-12 Ichikawa cell line [5]": {"tested_on": "P-12 Ichikawa cell line", "assay": "Cell diameter measurement (Vi-Cell cell counter)", "details": "approximately one week; DAPT 5 μM, anti-NRR1 5 μg/ml; FIG. 6", "protocol": "as §3"}, "TALL-1 cell line [6]": {"tested_on": "TALL-1 cell line", "assay": "Cell diameter measurement (Vi-Cell cell counter)", "details": "approximately one week; DAPT 5 μM, anti-NRR1 5 μg/ml; FIG. 6", "protocol": "as §3"}, "HPB-ALL cell line [7]": {"tested_on": "HPB-ALL cell line", "assay": "Apoptosis by Annexin V / 7-AAD FACS", "details": "approximately one week; DAPT 5 μM, anti-NRR1 5 μg/ml; FIG. 7", "protocol": "(§4) The P-12 Ichikawa cell line, the HPB-ALL cell line, and the TALL-1 cell line were treated as described above for FIG. 6. The cells were analyzed by FACS, with staining for 7-AAD (cell death marker) on the x-axis of FIG. 7, and staining for Annexin V (marker for apoptosis) on the y-axis of FIG. 7. […] In contrast, P-12 Ichikawa cells are resistant to both treatments, whereas TALL-1 cells are sensitive to DAPT but not to anti-NRR1."}, "P-12 Ichikawa cell line [8]": {"tested_on": "P-12 Ichikawa cell line", "assay": "Apoptosis by Annexin V / 7-AAD FACS", "details": "approximately one week; DAPT 5 μM, anti-NRR1 5 μg/ml; FIG. 7", "protocol": "as §4"}, "TALL-1 cell line [9]": {"tested_on": "TALL-1 cell line", "assay": "Apoptosis by Annexin V / 7-AAD FACS", "details": "approximately one week; DAPT 5 μM, anti-NRR1 5 μg/ml; FIG. 7", "protocol": "as §4"}, "HPB-ALL cell line [10]": {"tested_on": "HPB-ALL cell line", "assay": "Cell proliferation assay by Ki-67 staining FACS", "details": "approximately one week; DAPT 5 μM, anti-NRR1 5 μg/ml; FIG. 8 left panel", "protocol": "(§5) The P-12 Ichikawa cell line, the HPB-ALL cell line, and the TALL-1 cell line were treated as described above for FIG. 6. The cells were analyzed by FACS using Ki-67 staining to mark proliferation (left panel). A shift in the FACS peak to the left indicates lower staining for Ki-67 and decreased proliferation, and conversely, a shift in the FACS peak to the right indicates higher staining for Ki-67 and increased proliferation. Based on this proliferation assay, HPB-ALL was sensitive to both DAPT and anti-NRR1, TALL-1 was sensitive to DAPT but not anti-NRR1, and P-12 Ichikawa cells were resistant to both. […] Low cell counts (i.e., low numbers of Annexin V/7-AAD double negative (non-apoptotic) cells) indicate increased apoptosis, which in turn correlate with decreased proliferation in the left hand panel."}, "P-12 Ichikawa cell line [11]": {"tested_on": "P-12 Ichikawa cell line", "assay": "Cell proliferation assay by Ki-67 staining FACS", "details": "approximately one week; DAPT 5 μM, anti-NRR1 5 μg/ml; FIG. 8 left panel", "protocol": "as §5"}, "TALL-1 cell line [12]": {"tested_on": "TALL-1 cell line", "assay": "Cell proliferation assay by Ki-67 staining FACS", "details": "approximately one week; DAPT 5 μM, anti-NRR1 5 μg/ml; FIG. 8 left panel", "protocol": "as §5"}, "[13]": {"tested_on": "activated Notch3 in TALL-1", "assay": "Immunoblot of nuclear fractions with anti-Notch3 ICD antibody", "details": "TALL-1 nuclear fractions; FIG. 13 lower panel", "description": "(§6) This new anti-Notch3 ICD antibody was then used to investigate the activation status of Notch3 in the three classes of T-ALL. […] 3T3 cells expressing Notch1 (3T3-N1) and MDA-MB-468 (MB468) cells were used as controls. Consistent with the growth inhibition studies described in the previous figures, TALL-1 expresses high levels of activated Notch3 but not activated Notch1 (compare TALL-1 lanes in lower and upper panels, respectively). Furthermore, production of activated Notch3 in TALL-1 could be blocked by DAPT but not anti-NRR1 (lower panel). Moreover, as expected, HPB-ALL cells express high levels of activated Notch1, which can be blocked by DAPT or anti-NRR1 antibody (see HPB-ALL lanes in upper panel). As to the controls, activated Notch1 is seen as a lighter, up-shifted band in the 3T3-N1 cells treated with Jagged (+jag) (upper panel)."}, "[14]": {"tested_on": "activated Notch1 in HPB-ALL cells", "assay": "Immunoblot of nuclear fractions with anti-Notch1 Val1744", "details": "FIG. 13 upper panel", "description": "as §6"}, "[15]": {"tested_on": "activated Notch3 in MDA-MB-468 cells", "assay": "Immunoblot of MDA-MB-468 cells treated with anti-Notch3 agonist antibody", "details": "in the absence of DAPT, FIG. 13 lower panel", "description": "as §6"}, "[16]": {"details": "anti-NRR3 10 μg/ml, FIG. 11A-11F"}}, "data": [{"molecule": "C[C@H](NC(=O)Cc1cc(F)cc(F)c1)C(=O)N[C@H](C(=O)OC(C)(C)C)c1ccccc1", "note": "[DAPT, N—[N-(3,5-difluorophenacetyl)-L-alanyl]-S-phenylglycine t-butyl ester]", "values": [{"measurement": "growth sensitivity (cell cycle status)", "setting": "P-12 Ichikawa cell line [1]", "value": "resistant"}, {"measurement": "growth sensitivity (cell cycle status)", "setting": "CCRF-CEM cells", "value": "resistant"}, {"measurement": "growth sensitivity (cell cycle status)", "setting": "HPB-ALL cell line [2]; [16]", "value": "sensitive"}, {"measurement": "percentage of cells in G0/G1", "setting": "HPB-ALL cell line [2]; [16]", "value": "about 67%"}, {"measurement": "growth sensitivity (cell cycle status)", "setting": "HPB-ALL cell line [2]; FIG. 4A-4D", "value": "sensitive"}, {"measurement": "percentage of cells in G0/G1", "setting": "HPB-ALL cell line [2]; FIG. 4A-4D, control cells about 33-34%", "value": "about 78%"}, {"measurement": "percentage of cells in G0/G1", "setting": "TALL-1 cell line [3]; anti-NRR3 10 μg/ml, FIG. 9A-9F", "value": "~83", "unit": "%"}, {"measurement": "growth sensitivity (cell cycle status)", "setting": "TALL-1 cell line [3]; FIG. 5A-5D", "value": "sensitive"}, {"measurement": "percentage of cells in G0/G1", "setting": "TALL-1 cell line [3]; FIG. 5A-5D", "value": "about 87%"}, {"measurement": "cell diameter (cell size) versus control", "setting": "HPB-ALL cell line [4]", "value": "significantly smaller size"}, {"measurement": "cell diameter (cell size) versus control", "setting": "P-12 Ichikawa cell line [5]", "value": "resistant"}, {"measurement": "cell diameter (cell size) versus control", "setting": "TALL-1 cell line [6]", "value": "significantly smaller size"}, {"measurement": "apoptotic cell death (Annexin V/7-AAD double positive population)", "setting": "HPB-ALL cell line [7]", "value": "increases apoptotic cell death"}, {"measurement": "apoptotic cell death (Annexin V/7-AAD double positive population)", "setting": "P-12 Ichikawa cell line [8]", "value": "resistant"}, {"measurement": "apoptotic cell death (Annexin V/7-AAD double positive population)", "setting": "TALL-1 cell line [9]", "value": "sensitive"}, {"measurement": "proliferation (Ki-67 staining)", "setting": "HPB-ALL cell line [10]", "value": "sensitive"}, {"measurement": "proliferation (Ki-67 staining)", "setting": "P-12 Ichikawa cell line [11]", "value": "resistant"}, {"measurement": "proliferation (Ki-67 staining)", "setting": "TALL-1 cell line [12]", "value": "sensitive"}, {"measurement": "production of activated Notch3 (nuclear fraction immunoblot)", "setting": "[13]", "value": "blocked"}, {"measurement": "activated Notch1 levels (nuclear fraction immunoblot)", "setting": "[14]", "value": "blocked"}]}, {"molecule": "A13: anti-Notch3 agonist antibody described in US 2008/0118520 A1 as 256A-13 (antibody, V domains shown) VH: SQVQLQQSGAELAKPGTSVKMACKASGYTFTTHWMNWVKQRPGQGLEWIGTINPSNDFTDCNQKFKDKAILTADKSSSTAYMQLSSLTSEDSAIYYCASGLTARAWFAYWGQGTLVTVSAA VL: RATISCRASQSVTTSNYSYMHWFQQKPGQPPKLLIKYASNLDSGVPARFSGSGSGTDFTLNIHPVEEEDTATFYCQHSWEIPYTFGGGTNLEIKRADAAPTV", "values": [{"measurement": "activated Notch3 band after agonist antibody treatment", "setting": "[15]", "value": "faint but detectable band"}]}]}
